Assay results reported in paper PMC6576746, “Rational discovery of dual-indication multi-target PDE/Kinase inhibitor for precision anti-cancer therapy using structural systems pharmacology” (PLoS Computational Biology, 2019).

Tests used:
Test in all cases: biochemical
Set-up in all cases: DiscoverX KinomeScan competition binding assay across human kinases; per cent of control at 10 and 100 uM
[1] = molecular target: T1, RSK2(Kin.Dom.2-C-terminal) (Homo sapiens, UniProt P51812); conditions: competition binding, % of control; read-out: Percent Control (100 uM Levosimendan)
T1 construct: gene RPS6KA3; Kin.Dom.2-C-terminal
In short: (§1)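 KinomeScan competition binding was run across a human kinase panel at 10 μM and 100 μM levosimendan. Results are %control = (test − positive control)/(negative control − positive control) × 100.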

CAMK1B = molecular target: T2, CAMK1B (Homo sapiens, UniProt Q6P2M8); conditions: competition binding, % of control; read-out: Percent Control (100 uM Levosimendan)
T2 construct: gene PNCK
In short: as §1

DAPK1 = DAPK1 (Homo sapiens, UniProt P53355); conditions: competition binding, % of control; read-out: Percent Control (100 uM Levosimendan)
In short: as §1

CHEK2 = CHEK2 (Homo sapiens, UniProt O96017); conditions: competition binding, % of control
In short: as §1

[2] = molecular target: T3, ABL1(H396P)-phosphorylated (Homo sapiens, UniProt P00519, H396P); conditions: competition binding, % of control; read-out: Percent Control (100 uM Levosimendan)
T3 construct: phosphorylated
In short: as §1

PLK4 = PLK4 (Homo sapiens, UniProt O00444); conditions: competition binding, % of control
In short: as §1

NEK10 = NEK10 (Homo sapiens, UniProt Q6ZWH5); conditions: competition binding, % of control; read-out: Percent Control (100 uM Levosimendan)
In short: as §1

ACVR1B = ACVR1B (Homo sapiens, UniProt P36896); conditions: competition binding, % of control; read-out: Percent Control (100 uM Levosimendan)
In short: as §1

GCN2(Kin.Dom.2,S808G) = molecular target: T4, GCN2(Kin.Dom.2,S808G) (Homo sapiens, UniProt Q9P2K8, S808G); conditions: competition binding, % of control; read-out: Percent Control (100 uM Levosimendan)
T4 construct: gene EIF2AK4; Kin.Dom.2
In short: as §1

LATS1 = LATS1 (Homo sapiens, UniProt O95835); conditions: competition binding, % of control; read-out: Percent Control (100 uM Levosimendan)
In short: as §1

DLK = molecular target: T5, DLK (Homo sapiens, UniProt Q12852); conditions: competition binding, % of control; read-out: Percent Control (100 uM Levosimendan)
T5 construct: gene MAP3K12
In short: as §1

CSNK1A1 = CSNK1A1 (Homo sapiens, UniProt P48729); conditions: competition binding, % of control
In short: as §1

TAOK2 = TAOK2 (Homo sapiens, UniProt Q9UL54); conditions: competition binding, % of control; read-out: Percent Control (100 uM Levosimendan)
In short: as §1

IKK-alpha = molecular target: T6, IKK-alpha (Homo sapiens, UniProt O15111); conditions: competition binding, % of control; read-out: Percent Control (100 uM Levosimendan)
T6 construct: gene CHUK
In short: as §1

SNARK = molecular target: T7, SNARK (Homo sapiens, UniProt Q9H093); conditions: competition binding, % of control; read-out: Percent Control (100 uM Levosimendan)
T7 construct: gene NUAK2
In short: as §1

[3] = read-out: Percent Control (10 uM Levosimendan)
[4] = read-out: Percent Control (100 uM Levosimendan)

PLK4, sequence (O00444 whole entry): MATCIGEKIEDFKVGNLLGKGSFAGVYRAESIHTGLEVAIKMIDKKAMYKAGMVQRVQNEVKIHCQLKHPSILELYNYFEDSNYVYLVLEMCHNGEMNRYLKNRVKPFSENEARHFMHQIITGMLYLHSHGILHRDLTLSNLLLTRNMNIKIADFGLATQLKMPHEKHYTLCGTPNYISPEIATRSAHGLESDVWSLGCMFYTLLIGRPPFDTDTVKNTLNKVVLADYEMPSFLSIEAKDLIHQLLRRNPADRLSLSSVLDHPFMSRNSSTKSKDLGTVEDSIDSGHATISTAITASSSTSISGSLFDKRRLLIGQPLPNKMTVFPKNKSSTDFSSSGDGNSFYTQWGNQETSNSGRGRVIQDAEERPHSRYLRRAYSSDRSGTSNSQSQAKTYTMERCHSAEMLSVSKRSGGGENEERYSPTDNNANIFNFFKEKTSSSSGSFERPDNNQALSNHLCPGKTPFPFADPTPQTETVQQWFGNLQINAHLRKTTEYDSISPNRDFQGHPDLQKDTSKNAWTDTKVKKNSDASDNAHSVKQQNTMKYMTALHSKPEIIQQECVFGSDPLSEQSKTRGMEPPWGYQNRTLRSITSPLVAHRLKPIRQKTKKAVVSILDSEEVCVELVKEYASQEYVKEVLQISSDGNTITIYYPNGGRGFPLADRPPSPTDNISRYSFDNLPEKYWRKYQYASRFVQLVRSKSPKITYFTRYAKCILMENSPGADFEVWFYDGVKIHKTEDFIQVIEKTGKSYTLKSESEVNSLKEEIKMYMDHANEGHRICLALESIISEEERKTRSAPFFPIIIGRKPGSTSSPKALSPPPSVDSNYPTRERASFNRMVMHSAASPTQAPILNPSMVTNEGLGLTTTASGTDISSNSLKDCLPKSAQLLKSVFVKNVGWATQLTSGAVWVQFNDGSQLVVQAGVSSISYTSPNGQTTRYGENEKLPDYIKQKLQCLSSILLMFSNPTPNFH
CSNK1A1, sequence (P48729 whole entry): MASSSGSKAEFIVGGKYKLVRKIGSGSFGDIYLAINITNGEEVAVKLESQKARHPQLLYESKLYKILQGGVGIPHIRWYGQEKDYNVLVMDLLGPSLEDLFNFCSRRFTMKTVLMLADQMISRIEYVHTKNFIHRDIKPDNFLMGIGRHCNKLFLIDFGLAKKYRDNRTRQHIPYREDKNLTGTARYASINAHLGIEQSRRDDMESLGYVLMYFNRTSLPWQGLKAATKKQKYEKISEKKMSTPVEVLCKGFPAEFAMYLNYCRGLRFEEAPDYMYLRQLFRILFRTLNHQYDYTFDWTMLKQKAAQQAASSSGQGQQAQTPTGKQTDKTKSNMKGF
CHEK2, sequence (O96017 whole entry): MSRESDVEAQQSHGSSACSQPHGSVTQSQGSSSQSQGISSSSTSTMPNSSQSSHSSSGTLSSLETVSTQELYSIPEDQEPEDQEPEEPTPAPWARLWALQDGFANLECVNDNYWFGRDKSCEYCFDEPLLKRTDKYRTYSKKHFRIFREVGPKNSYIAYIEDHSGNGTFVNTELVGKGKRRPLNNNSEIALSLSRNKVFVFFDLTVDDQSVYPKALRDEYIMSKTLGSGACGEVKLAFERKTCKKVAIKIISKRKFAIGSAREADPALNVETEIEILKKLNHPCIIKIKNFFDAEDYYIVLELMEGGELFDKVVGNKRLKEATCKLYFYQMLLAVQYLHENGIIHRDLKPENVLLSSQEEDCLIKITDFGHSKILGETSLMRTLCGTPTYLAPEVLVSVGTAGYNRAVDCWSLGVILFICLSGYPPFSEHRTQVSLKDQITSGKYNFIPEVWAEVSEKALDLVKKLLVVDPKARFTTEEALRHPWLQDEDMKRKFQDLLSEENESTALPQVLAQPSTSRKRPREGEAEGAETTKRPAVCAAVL
T5 sequence (Q12852 whole entry): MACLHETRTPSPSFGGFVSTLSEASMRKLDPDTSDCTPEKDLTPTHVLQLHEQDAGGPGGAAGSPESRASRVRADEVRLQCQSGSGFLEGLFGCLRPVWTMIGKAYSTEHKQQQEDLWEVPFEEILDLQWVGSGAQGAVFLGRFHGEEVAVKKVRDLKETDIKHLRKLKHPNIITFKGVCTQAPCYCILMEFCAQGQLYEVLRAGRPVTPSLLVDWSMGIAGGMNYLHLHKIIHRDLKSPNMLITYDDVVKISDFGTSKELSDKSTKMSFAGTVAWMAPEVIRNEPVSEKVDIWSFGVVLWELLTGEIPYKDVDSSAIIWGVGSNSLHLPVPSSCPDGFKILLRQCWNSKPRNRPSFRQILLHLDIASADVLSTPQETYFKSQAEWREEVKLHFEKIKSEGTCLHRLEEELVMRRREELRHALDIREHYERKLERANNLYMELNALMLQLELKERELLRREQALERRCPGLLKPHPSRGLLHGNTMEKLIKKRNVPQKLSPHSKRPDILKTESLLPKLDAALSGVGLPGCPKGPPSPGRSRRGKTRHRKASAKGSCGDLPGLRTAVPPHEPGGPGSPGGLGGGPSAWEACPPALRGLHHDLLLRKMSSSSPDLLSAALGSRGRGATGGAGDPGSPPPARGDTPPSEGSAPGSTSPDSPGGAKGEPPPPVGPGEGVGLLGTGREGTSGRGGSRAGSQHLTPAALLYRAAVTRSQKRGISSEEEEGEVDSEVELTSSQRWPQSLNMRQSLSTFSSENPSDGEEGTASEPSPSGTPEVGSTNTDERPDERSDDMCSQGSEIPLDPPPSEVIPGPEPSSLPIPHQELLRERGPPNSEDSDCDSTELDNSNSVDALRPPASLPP
T2 sequence (Q6P2M8 whole entry): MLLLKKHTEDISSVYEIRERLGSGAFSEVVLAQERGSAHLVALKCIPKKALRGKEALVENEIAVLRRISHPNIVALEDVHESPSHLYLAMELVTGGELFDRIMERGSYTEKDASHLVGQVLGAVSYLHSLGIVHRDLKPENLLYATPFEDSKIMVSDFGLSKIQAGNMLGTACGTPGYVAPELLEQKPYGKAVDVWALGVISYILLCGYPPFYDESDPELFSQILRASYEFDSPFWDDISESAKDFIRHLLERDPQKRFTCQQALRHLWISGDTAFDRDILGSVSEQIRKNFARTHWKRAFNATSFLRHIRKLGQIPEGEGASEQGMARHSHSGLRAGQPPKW
T1 sequence (P51812 whole entry): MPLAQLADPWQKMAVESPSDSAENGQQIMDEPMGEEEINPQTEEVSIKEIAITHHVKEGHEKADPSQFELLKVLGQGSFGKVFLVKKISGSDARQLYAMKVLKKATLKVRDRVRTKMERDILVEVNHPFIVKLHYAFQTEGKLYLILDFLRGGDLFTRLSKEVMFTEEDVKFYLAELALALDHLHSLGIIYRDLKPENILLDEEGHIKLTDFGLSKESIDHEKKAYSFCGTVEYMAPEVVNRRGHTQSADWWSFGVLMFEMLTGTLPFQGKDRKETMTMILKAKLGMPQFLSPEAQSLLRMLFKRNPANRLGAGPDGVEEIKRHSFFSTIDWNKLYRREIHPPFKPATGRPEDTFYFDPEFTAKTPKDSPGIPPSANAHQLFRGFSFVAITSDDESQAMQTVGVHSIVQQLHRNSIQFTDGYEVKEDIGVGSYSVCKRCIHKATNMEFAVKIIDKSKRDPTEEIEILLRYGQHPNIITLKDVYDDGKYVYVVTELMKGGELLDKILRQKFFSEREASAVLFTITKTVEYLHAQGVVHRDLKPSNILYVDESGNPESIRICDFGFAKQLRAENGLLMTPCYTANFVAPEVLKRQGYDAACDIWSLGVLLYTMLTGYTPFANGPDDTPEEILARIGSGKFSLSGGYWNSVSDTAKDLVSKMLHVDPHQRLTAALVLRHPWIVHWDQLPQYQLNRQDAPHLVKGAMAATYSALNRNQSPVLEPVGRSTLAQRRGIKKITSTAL
T7 sequence (Q9H093 whole entry): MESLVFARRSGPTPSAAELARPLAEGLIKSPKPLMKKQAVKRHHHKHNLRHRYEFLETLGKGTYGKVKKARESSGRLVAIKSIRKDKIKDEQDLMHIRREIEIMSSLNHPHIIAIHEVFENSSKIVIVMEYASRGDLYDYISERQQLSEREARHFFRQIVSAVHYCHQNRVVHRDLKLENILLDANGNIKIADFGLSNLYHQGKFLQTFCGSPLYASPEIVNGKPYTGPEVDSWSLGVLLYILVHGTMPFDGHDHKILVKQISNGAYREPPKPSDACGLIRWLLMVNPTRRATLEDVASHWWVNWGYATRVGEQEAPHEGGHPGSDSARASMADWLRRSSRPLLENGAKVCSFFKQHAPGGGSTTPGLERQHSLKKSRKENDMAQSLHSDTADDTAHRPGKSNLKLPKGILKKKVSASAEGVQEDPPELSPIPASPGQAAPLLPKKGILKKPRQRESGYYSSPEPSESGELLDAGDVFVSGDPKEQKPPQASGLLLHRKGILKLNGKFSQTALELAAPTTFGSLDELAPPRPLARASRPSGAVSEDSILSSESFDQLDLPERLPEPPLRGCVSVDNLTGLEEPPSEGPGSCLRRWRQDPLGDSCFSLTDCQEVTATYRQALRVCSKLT
ACVR1B, sequence (P36896 whole entry): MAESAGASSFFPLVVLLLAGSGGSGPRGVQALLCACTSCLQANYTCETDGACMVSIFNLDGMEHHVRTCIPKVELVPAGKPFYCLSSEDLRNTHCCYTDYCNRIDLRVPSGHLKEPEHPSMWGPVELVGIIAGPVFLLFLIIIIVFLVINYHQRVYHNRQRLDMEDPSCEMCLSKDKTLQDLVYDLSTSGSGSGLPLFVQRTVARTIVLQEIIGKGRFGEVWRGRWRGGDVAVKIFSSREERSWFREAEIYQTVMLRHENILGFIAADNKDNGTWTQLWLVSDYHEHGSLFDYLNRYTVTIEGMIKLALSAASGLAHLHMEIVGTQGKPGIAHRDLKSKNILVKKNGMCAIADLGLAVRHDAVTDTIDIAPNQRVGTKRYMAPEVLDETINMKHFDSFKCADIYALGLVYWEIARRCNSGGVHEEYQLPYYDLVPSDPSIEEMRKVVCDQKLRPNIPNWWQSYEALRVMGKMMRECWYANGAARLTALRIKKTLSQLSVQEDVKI

- remaining binding at 100 µM [1]: 66%
- remaining binding at 100 µM (CAMK1B): 100%
- remaining binding at 100 µM (DAPK1): 88%
- remaining binding at 10 µM (CHEK2; [3]): 41%
- remaining binding at 100 µM (CHEK2; [4]): 0.65%
- remaining binding at 100 µM [2]: 68%
- remaining binding at 10 µM (PLK4; [3]): 100%
- remaining binding at 100 µM (PLK4; [4]): 45%
- remaining binding at 100 µM (NEK10): 100%
- remaining binding at 100 µM (ACVR1B): 61%
- remaining binding at 100 µM (GCN2(Kin.Dom.2,S808G)): 100%
- remaining binding at 100 µM (LATS1): 100%
- remaining binding at 100 µM (DLK): 62%
- remaining binding at 10 µM (CSNK1A1; [3]): 98%
- remaining binding at 100 µM (CSNK1A1; [4]): 42%
- remaining binding at 100 µM (TAOK2): 89%
- remaining binding at 100 µM (IKK-alpha): 59%
- remaining binding at 100 µM (SNARK): 100%
SMILES: C[C@@H]1CC(=O)NN=C1c1ccc(NN=C(C#N)C#N)cc1 [levosimendan]
